Measured values from PubChem BioAssay AID1259407 (Chemical Carcinogenesis Research Information System (CCRIS), 2018).
Calls of active or inactive are those of the source. The rule behind the calls is not given here.

Tested on: CCRIS mutagenicity, Ames/micronucleus/aberration tests
Assay: CCRIS mutagenicity studies

Compound: COc1cc(-c2ccc(N)c(OC)c2)ccc1N
- mutagenic call (End Point: IN VITRO CHROMOSOMAL ABERRATIONS, Test System: CHL CELLS, Metabolic Activation: RAT, LIVER, S-9, SODIUM PHENOBARBITAL AND 5,6-BENZOFLAVONE): active; positive (structural changes); precipitation of test chemical observed above 0.6
- mutagenic call (Test System: AMES SALMONELLA TYPHIMURIUM, Strain/Indicator: SV50, Metabolic Activation: NONE, Method: PREINCUBATION (PRIVAL METHOD)): inactive; negative
- mutagenic call (Test System: AMES SALMONELLA TYPHIMURIUM, Strain/Indicator: SV50, Metabolic Activation: RAT, LIVER, S-9, AROCLOR 1254, Method: STANDARD PLATE): inactive; negative
- mutagenic call (Test System: AMES SALMONELLA TYPHIMURIUM, Strain/Indicator: TA98(1,8-DNP6), Metabolic Activation: NONE, Method: STANDARD PLATE): inactive; negative
- mutagenic call (Test System: AMES SALMONELLA TYPHIMURIUM, Strain/Indicator: TA98(1,8-DNP6), Metabolic Activation: S-9, Method: STANDARD PLATE): active; positive
- mutagenic call (Test System: AMES SALMONELLA TYPHIMURIUM, Strain/Indicator: TA98, Metabolic Activation: HAMSTER, LIVER, S-9, AROCLOR 1254, Method: PREINCUBATION): active; positive
- mutagenic call (Test System: AMES SALMONELLA TYPHIMURIUM, Strain/Indicator: TA98, Metabolic Activation: HAMSTER, LIVER, S-9, Method: PREINCUBATION (PRIVAL METHOD)): inactive; negative
- mutagenic call (Test System: AMES SALMONELLA TYPHIMURIUM, Strain/Indicator: TA98, Metabolic Activation: RAT LIVER S-9, AROCLOR 1254, Method: PREINCUBATION): active; positive
- mutagenic call (Test System: AMES SALMONELLA TYPHIMURIUM, Strain/Indicator: TA98, Metabolic Activation: RAT LIVER S-9, PHENOBARBITAL AND BETA-NAPHTHOFLAVONE, Method: PREINCUBATION): active; positive
- mutagenic call (Test System: AMES SALMONELLA TYPHIMURIUM, Strain/Indicator: TA98, Metabolic Activation: RAT, LIVER, S-9, AROCLOR 1254, Method: PREINCUBATION): active; positive
- mutagenic call (Test System: AMES SALMONELLA TYPHIMURIUM, Strain/Indicator: TA98, Metabolic Activation: RAT, LIVER, S-9, AROCLOR 1254, Method: STANDARD PLATE): active; positive
- mutagenic call (Test System: AMES SALMONELLA TYPHIMURIUM, Strain/Indicator: TA98, Metabolic Activation: RAT, LIVER, S-9, PCB, Method: PREINCUBATION): active; positive
- mutagenic call (Test System: AMES SALMONELLA TYPHIMURIUM, Strain/Indicator: TA98, Metabolic Activation: S-9, Method: STANDARD PLATE): active; positive
- mutagenic call (Test System: AMES SALMONELLA TYPHIMURIUM, Strain/Indicator: TA100, Metabolic Activation: HAMSTER, LIVER, S-9, AROCLOR 1254, Method: PREINCUBATION): inactive; negative
- mutagenic call (Test System: AMES SALMONELLA TYPHIMURIUM, Strain/Indicator: TA100, Metabolic Activation: NONE, Method: PREINCUBATION): inactive; negative
- mutagenic call (Test System: AMES SALMONELLA TYPHIMURIUM, Strain/Indicator: TA100, Metabolic Activation: NONE, Method: STANDARD PLATE): inactive; negative
- mutagenic call (Test System: AMES SALMONELLA TYPHIMURIUM, Strain/Indicator: TA100, Metabolic Activation: RAT LIVER S-9, AROCLOR 1254, Method: PREINCUBATION): active; positive
- mutagenic call (Test System: AMES SALMONELLA TYPHIMURIUM, Strain/Indicator: TA100, Metabolic Activation: RAT LIVER S-9, PHENOBARBITAL AND BETA-NAPHTHOFLAVONE, Method: PREINCUBATION): inactive; negative
- mutagenic call (Test System: AMES SALMONELLA TYPHIMURIUM, Strain/Indicator: TA100, Metabolic Activation: RAT, LIVER, S-9, AROCLOR 1254, Method: PREINCUBATION): active; positive
- mutagenic call (Test System: AMES SALMONELLA TYPHIMURIUM, Strain/Indicator: TA100, Metabolic Activation: RAT, LIVER, S-9, PCB, Method: PREINCUBATION): active; positive
- mutagenic call (Test System: AMES SALMONELLA TYPHIMURIUM, Strain/Indicator: TA100, Metabolic Activation: S-9, Method: STANDARD PLATE): inactive; negative
- mutagenic call (Test System: AMES SALMONELLA TYPHIMURIUM, Strain/Indicator: TA1535, Metabolic Activation: NONE, Method: PREINCUBATION): inactive; negative
- mutagenic call (Test System: AMES SALMONELLA TYPHIMURIUM, Strain/Indicator: TA1535, Metabolic Activation: RAT, LIVER, S-9, AROCLOR 1254, Method: PREINCUBATION): inactive; negative
- mutagenic call (Test System: AMES SALMONELLA TYPHIMURIUM, Strain/Indicator: TA1535, Metabolic Activation: RAT, LIVER, S-9, AROCLOR 1254, Method: STANDARD PLATE): active; positive
- mutagenic call (Test System: AMES SALMONELLA TYPHIMURIUM, Strain/Indicator: TA1537, Metabolic Activation: HAMSTER, LIVER, S-9, AROCLOR 1254, Method: PREINCUBATION): inactive; negative
- mutagenic call (Test System: AMES SALMONELLA TYPHIMURIUM, Strain/Indicator: TA1537, Metabolic Activation: NONE, Method: PREINCUBATION): inactive; negative
- mutagenic call (Test System: AMES SALMONELLA TYPHIMURIUM, Strain/Indicator: TA1537, Metabolic Activation: RAT LIVER S-9, PHENOBARBITAL AND BETA-NAPHTHOFLAVONE, Method: PREINCUBATION): inactive; negative
- mutagenic call (Test System: AMES SALMONELLA TYPHIMURIUM, Strain/Indicator: TA1537, Metabolic Activation: RAT, LIVER, S-9, AROCLOR 1254, Method: PREINCUBATION): inactive; negative
- mutagenic call (Test System: AMES SALMONELLA TYPHIMURIUM, Strain/Indicator: TA1538, Metabolic Activation: HAMSTER, LIVER, S-9, Method: STANDARD PLATE): active; positive
- mutagenic call (Test System: AMES SALMONELLA TYPHIMURIUM, Strain/Indicator: TA1538, Metabolic Activation: RAT, LIVER, S-9, AROCLOR 1254, Method: STANDARD PLATE): active; positive
- mutagenic call (Test System: AMES SALMONELLA TYPHIMURIUM, Strain/Indicator: TA1538, Metabolic Activation: RAT, LIVER, S-9, PHENOBARBITAL, Method: STANDARD PLATE): active; positive
- mutagenic call (Test System: Ames Salmonella typhimurium, Strain/Indicator: TA98, Metabolic Activation: Rat, Liver, S-9, Sodium phenobarbitone, Method: Preincubation): active; positive, test conducted under both aerobic and anaerobic conditions.
- mutagenic call (Test System: Ames Salmonella typhimurium, Strain/Indicator: TA102, Metabolic Activation: None, Method: Preincubation): inactive; negative
- mutagenic call (Test System: Ames Salmonella typhimurium, Strain/Indicator: TA102, Metabolic Activation: Rat, Liver, S-9, Aroclor 1254, 4%, Method: Preincubation): active; positive
- mutagenic call (Test System: Ames Salmonella typhimurium, Strain/Indicator: TA1538, Metabolic Activation: Rat, Liver, S-9, Sodium phenobarbitone, Method: Preincubation): active; positive, test conducted under both aerobic and anaerobic conditions.
- mutagenic call (Test System: MOUSE LYMPHOMA, Strain/Indicator: L5178Y (TK+/TK-), Metabolic Activation: NONE, Method: SUSPENSION/PLATE): active; positive
- mutagenic call (Test System: MOUSE LYMPHOMA, Strain/Indicator: L5178Y (TK+/TK-), Metabolic Activation: RAT, LIVER, S-9, AROCLOR 1254, Method: SUSPENSION/PLATE): active; positive
- mutagenic call (Test System: UDS HUMAN CELLS, Strain/Indicator: THY INCORP (NON-S-PHASE), Metabolic Activation: RAT, LIVER, S-9, PHENOBARBITAL, Method: LIQUID SCINTILLATION COUNTING): active; positive
